Experimental data reported in US5596002A, “Method of treating chloroquine-resistant malaria with aminoquinoline derivatives” (Hoffmann-La Roche Inc., priority 1993, dated 1997).
≈ marks a conversion by molar mass, not a printed value. Read-outs that look alike come from different tables or passages of the source.

Legend:
[1] = test system: Plasmodium falciparum, chloroquine-sensitive strain NF54; test: activity against P. falciparum in vitro, strain NF54; format: cell-based; settings: Plasmodium falciparum; chloroquine-sensitive strain NF54; 48 h-72 h; read-out: IC50 (50% growth inhibition)
Method in brief: (§1)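 IC50 values come from logit regression of radiolabelled hypoxanthine incorporation after 48 h-72 h drug exposure of asynchronous P. falciparum in human A+ red cells (0.7% parasitemia).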

[2] = test system: Plasmodium falciparum, chloroquine-sensitive strain FCH5C2; test: activity against P. falciparum in vitro, strain FCH5C2; format: cell-based; settings: chloroquine-sensitive strain FCH5C2, 48 h-72 h, read-out: IC50 (50% growth inhibition)
Method in brief: as §1

[3] = test system: Plasmodium falciparum, chloroquine-sensitive strain HB3; test: activity against P. falciparum in vitro, strain HB3; format: cell-based; settings: chloroquine-sensitive strain HB3, 48 h-72 h, read-out: IC50 (50% growth inhibition)
Method in brief: as §1

[4] = test system: Plasmodium falciparum, chloroquine-sensitive strain RFMEF3; test: activity against P. falciparum in vitro, strain RFMEF3; format: cell-based; settings: chloroquine-sensitive strain RFMEF3, 48 h-72 h, read-out: IC50 (50% growth inhibition)
Method in brief: as §1

[5] = test system: Plasmodium falciparum, chloroquine-sensitive strain Ro7 3; test: activity against P. falciparum in vitro, strain Ro7 3; format: cell-based; settings: chloroquine-sensitive strain Ro7 3, 48 h-72 h, read-out: IC50 (50% growth inhibition)
Method in brief: as §1

[6] = test system: Plasmodium falciparum, chloroquine-resistant strain RFCR3; test: activity against P. falciparum in vitro, strain RFCR3; format: cell-based; settings: chloroquine-resistant strain RFCR3, 48 h-72 h, read-out: IC50 (50% growth inhibition)
Method in brief: as §1

[7] = test system: Plasmodium falciparum, chloroquine-resistant strain ItG2 F6; test: activity against P. falciparum in vitro, strain ItG2 F6; format: cell-based; settings: chloroquine-resistant strain ItG2 F6, 48 h-72 h, read-out: IC50 (50% growth inhibition)
Method in brief: as §1

[8] = test system: Plasmodium falciparum, chloroquine-resistant strain Indo; test: activity against P. falciparum in vitro, strain Indo; format: cell-based; settings: chloroquine-resistant strain Indo, 48 h-72 h, read-out: IC50 (50% growth inhibition)
Method in brief: as §1

[9] = test system: Plasmodium falciparum, chloroquine-resistant strain K1; test: activity against P. falciparum in vitro, strain K1; format: cell-based; settings: Plasmodium falciparum; chloroquine-resistant strain K1; 48 h-72 h; read-out: IC50 (50% growth inhibition)
Method in brief: as §1

[10] = test system: Plasmodium falciparum, chloroquine-resistant strain W2; test: activity against P. falciparum in vitro, strain W2; format: cell-based; settings: chloroquine-resistant strain W2, 48 h-72 h, read-out: IC50 (50% growth inhibition)
Method in brief: as §1

[11] = test system: Plasmodium falciparum, chloroquine-resistant strain 7G8; test: activity against P. falciparum in vitro, strain 7G8; format: cell-based; settings: chloroquine-resistant strain 7G8, 48 h-72 h, read-out: IC50 (50% growth inhibition)
Method in brief: as §1

[12] = test system: Plasmodium falciparum, chloroquine-resistant strain W2 Mef; test: activity against P. falciparum in vitro, strain W2 Mef; format: cell-based; settings: 48 h-72 h, read-out: IC50 (50% growth inhibition)
Method in brief: as §1

[13] = test system: Plasmodium berghei (strain ANKA); test: activity against Plasmodium berghei in vivo (infected mice); settings: mice; for inhibition in vivo at 10 mg/kg: 48 hours after treatment (D+3); for ED50: single administration po, dose reducing average erythrocyte infection rate by 50%, read-out: ED50 (po)
Protocol: Test method for the determination of the activity against Plasmodium berghei in vivo
The preparations according to the present invention were tested on mice infected with malaria pathogens (Plasmodium berghei). Male albino mice (IBM:MORO(SPF), FUELLINSDORF) weighing about 25 g were used as the test animals. They were kept in climatized rooms at 21°-22° C. in groups of 5 animals per cage. They received ad libitum a diet feed with a low PABA content ("NAFAG FUTTER" No. 9009 PAB-45, PABA content 45 mg/kg) and drinking water. On the first day of the test (D0) the test animals were infected with Plasmodium berghei (strain ANKA). For this there was used heparinized blood of a donor mouse with about 30% parasitemia, which was diluted with physiological saline such that it contains 10^8 parasitized erythrocytes per ml. 0.2 ml of this suspension was injected intravenously (i.v.) into the mice to be treated and into the control mice. In untreated control animals the parasitemia normally reaches 30-40% on the third day after the infection (D+3) and the test animals die between days +5 and +7.
The substances to be tested were dissolved or suspended in distilled water or in a mixture of 7% Tween 80, 3% alcohol (96%) and water. Usually, 0.25 ml of this solution or suspension was administered once subcutaneously and perorally to groups of 5 test animals. Treatment was effected 24 hours after the infection. 10 control animals were treated in the same manner with solvent or suspension medium per test.
All substances were tested in a first test in a single dosage of 10 mg/kg. Only those substances which in this test (10 mg/kg) had shown a parasitaemia reduction of 90% were used for the titration.
48 hours after the treatment (D+3), blood smears were prepared from all animals using blood from tail veins and were stained with Giemsa. The average erythrocyte infection rate (parasitemia in %) in the control groups as well as in the groups which had been treated with the test compounds was determined by counting under a microscope. The difference in the average values of the infection rates of control group (100%) and treated groups was calculated and expressed as a percentage reduction (GI %). The ED50 or ED90 was determined mathematically by means of the JMP programme (nonlinear fit). The ED50 (ED90) in mg/kg is that dose which after single administration reduces the average erythrocyte infection rate by 50% (90%) in comparison to the control group.
Table 2 below contains data with respect to the activity measured against Plasmodium berghei in mice: GI % is the percentage reduction in the parasitemia after a single dose of 10 mg/kg of the test substance administered perorally (po) or subcutaneously (sc); ED50 and ED90 are the effective doses of the test substance administered perorally or subcutaneously.

[14] = single dose 10 mg/kg po, read-out: GI % at 10 mg/kg (po): percentage reduction in the parasitemia
[15] = single dose 10 mg/kg sc, read-out: GI % at 10 mg/kg (sc): percentage reduction in the parasitemia

Row | Compound | IC50 [1] [ng/mL] | IC50 [2] [ng/mL] | IC50 [3] [ng/mL] | IC50 [4] [ng/mL] | IC50 [5] [ng/mL] | IC50 [6] [ng/mL] | IC50 [7] [ng/mL] | IC50 [8] [ng/mL] | IC50 [9] [ng/mL] | IC50 [10] [ng/mL] | IC50 [11] [ng/mL] | IC50 [12] [ng/mL] | inhibition in vivo at 10 mg/kg [13, 14] [%] | inhibition in vivo at 10 mg/kg [13, 15] [%] | ED50 [13] [mg/kg]
1 | CN(C)C(C)(C)CNc1ccnc2cc(Cl)ccc12 [Example 33b, N1-(7-Chloro-quinolin-4-yl)-2,N2,N2-trimethyl-propane-1,2-diamine] | 8 (≈ 0.0288 µM) | 11 (≈ 0.0396 µM) | 12 (≈ 0.0432 µM) | 8 (≈ 0.0288 µM) | 4 (≈ 0.0144 µM) | 10 (≈ 0.036 µM) | 17 (≈ 0.0612 µM) | 9 (≈ 0.0324 µM) | 17 (≈ 0.0612 µM) | 9 (≈ 0.0324 µM) | 18 (≈ 0.0648 µM) | 18 (≈ 0.0648 µM) | 99.9 | 99.9 | 
2 | CN1CCCC(Nc2ccnc3cc(Cl)ccc23)C1 (racemic) [Example 19a, (RS)-(7-Chloro-quinolin-4-yl)-(1-methyl-piperidin-3-yl)-amine] | 6 (≈ 0.0218 µM) | 7 (≈ 0.0254 µM) | 6 (≈ 0.0218 µM) | 7 (≈ 0.0254 µM) | 5 (≈ 0.0181 µM) | 11 (≈ 0.0399 µM) | 5 (≈ 0.0181 µM) | 8 (≈ 0.029 µM) | 9 (≈ 0.0326 µM) | 10 (≈ 0.0363 µM) | 8 (≈ 0.029 µM) | 6 (≈ 0.0218 µM) | 99.9 | 99.9 | 2.4
3 | CCN(CC)CC(C)Nc1ccnc2cc(Cl)ccc12 (racemic) [Example 2, (RS)-N2-(7-Chloro-quinolin-4-yl)-N1,N1-diethyl-propane-1,2-diamine] | 7 (≈ 0.024 µM) | 7 (≈ 0.024 µM) | 7 (≈ 0.024 µM) | 7 (≈ 0.024 µM) | 6 (≈ 0.0206 µM) | 8 (≈ 0.0274 µM) | 5 (≈ 0.0171 µM) | 6 (≈ 0.0206 µM) | 14 (≈ 0.048 µM) | 8 (≈ 0.0274 µM) | 8 (≈ 0.0274 µM) | 9 (≈ 0.0308 µM) | 99.8 | 99.9 | 3.2
4 | CCN(CC)[C@@H]1CCC[C@H]1Nc1ccnc2cc(Cl)ccc12 (racemic) [Example 11, (1RS,2RS)-N1-(7-Chloro-quinolin-4-yl)-N2,N2-diethyl-cyclopentane-1,2-diamine] | 5 (≈ 0.0157 µM) | 7 (≈ 0.022 µM) | 6 (≈ 0.0189 µM) | 6 (≈ 0.0189 µM) | 5 (≈ 0.0157 µM) | 13 (≈ 0.0409 µM) | 6 (≈ 0.0189 µM) | 10 (≈ 0.0315 µM) | 18 (≈ 0.0566 µM) | 15 (≈ 0.0472 µM) | 9 (≈ 0.0283 µM) | 9 (≈ 0.0283 µM) | 99.9 | 99.9 | 2.2
5 | CN1CCCC1CNc1ccnc2cc(Cl)ccc12 (centres unmarked) [Example 12a, (7-Chloro-quinolin-4-yl)-(1-methyl-pyrrolidin-2-yl-methyl)-amine] | 7 (≈ 0.0254 µM) | 8 (≈ 0.029 µM) | 10 (≈ 0.0363 µM) | 8 (≈ 0.029 µM) | 7 (≈ 0.0254 µM) | 11 (≈ 0.0399 µM) | 5 (≈ 0.0181 µM) | 11 (≈ 0.0399 µM) | 9 (≈ 0.0326 µM) | 9 (≈ 0.0326 µM) | 8 (≈ 0.029 µM) | 6 (≈ 0.0218 µM) | 91 | 91 | 4.8
6 | Clc1ccc2c(N[C@@H]3CCC[C@H]3N3CCCC3)ccnc2c1 (relative stereo) [Example 11a, (1RS,2RS)-N1-(7-Chloro-quinolin-4-yl)-(2-pyrrolidin-1-yl-cyclopentyl)-amine] | 7 (≈ 0.0222 µM) | 7 (≈ 0.0222 µM) | 6 (≈ 0.019 µM) | 7 (≈ 0.0222 µM) | 4 (≈ 0.0127 µM) | 18 (≈ 0.057 µM) | 8 (≈ 0.0253 µM) | 15 (≈ 0.0475 µM) | 15 (≈ 0.0475 µM) | 17 (≈ 0.0538 µM) | 14 (≈ 0.0443 µM) | 15 (≈ 0.0475 µM) | 99 | 99.6 | 4.5
7 | CC1CC(C)(C)C(CNc2ccnc3cc(Cl)ccc23)C1N (centres unmarked) [Example 20, (5-Amino-2,2,4-trimethyl-cyclopentylmethyl)-(7-chloro-quinolin-4yl)-amine] | 3 (≈ 0.00944 µM) | 7 (≈ 0.022 µM) | 4 (≈ 0.0126 µM) | 4 (≈ 0.0126 µM) | 7 (≈ 0.022 µM) | 14 (≈ 0.044 µM) | 7 (≈ 0.022 µM) | 8 (≈ 0.0252 µM) | 10 (≈ 0.0315 µM) | 11 (≈ 0.0346 µM) | 15 (≈ 0.0472 µM) | 14 (≈ 0.044 µM) | 99.9 | 99.9 | 4.4
8 | CN1CCC(Nc2ccnc3cc(Cl)ccc23)C1 (racemic) [Example 33a, (R,S)-(7-Chloro-quinolin-4-yl)-(1-methyl-pyrrolidin-3-yl)-amine] | 7 (≈ 0.0267 µM) | 8 (≈ 0.0306 µM) | 7 (≈ 0.0267 µM) | 7 (≈ 0.0267 µM) | 5 (≈ 0.0191 µM) | 9 (≈ 0.0344 µM) | 5 (≈ 0.0191 µM) | 9 (≈ 0.0344 µM) | 8 (≈ 0.0306 µM) | 9 (≈ 0.0344 µM) | 9 (≈ 0.0344 µM) | 7 (≈ 0.0267 µM) | 99.7 | 99.9 | 3.3
